Source: patent publication US20260217652A1, “PHENYL-SUBSTITUTED HETEROARYL COMPOUND AND PHARMACEUTICAL COMPOSITION COMPRISING SAME, PREPARATION METHOD THEREFOR AND USE THEREOF” (SHANGHAI MEIYUE BIOTECH DEVELOPMENT CO., LTD., priority 2023, published 2026)
Where two headings read alike, the source gives them in different places.

What was measured:
p38 MAPK/MK2 = molecular target: T1, p38 MAPK/MK2 (Homo sapiens, UniProt Q16539); assay: In vitro activity assay of p38 MAPK/MK2 (Z-LYTE kinase assay kit); assay type: biochemical; conditions: active p38α, inactive MK2, Ser/Thr 4; 1-hour reaction at 20° C.
T1 construct: purchased Carna (p38α); Abcam (MK2) 04-152; 79910
Procedure: (§1) The inhibitory effect of the compound on p38 MAPK/MK2 was evaluated using the Z-LYTE kinase assay kit (Thermo, PV3177). The test compound was dissolved in DMSO to obtain a 10 mM stock solution and stored at −20° C. for future use. The initial concentration of the compound was […], with 1% DMSO, 5-fold serial dilution, 8 concentrations, and duplicate wells. […] After a 1-hour reaction at 20° C., Development Reagent A diluted 2048-fold was added to each well, followed by incubation at room temperature for 1 hour. The reaction was terminated by adding 5 μL of stop buffer, and the plate was read using a microplate reader (Ex. 400 nm, Em. 445 nm; Ex. 400 nm, Em. 520 nm). The concentration-effect curve was fitted using GraphPad Prism 8 software, and the compound concentration resulting in 50% inhibition, IC50, was calculated.

[1] = tested on: TNF-α in human PBMC cells; assay: In vitro TNF-α activity assay in human PBMC cell supernatant (LPS, ELISA); assay type: cell-based; conditions: LPS 100 ng/mL, read-out: p38 MAPK/TNF-α IC50
Procedure: The inhibitory effect of the compound on TNF-α in the supernatant of human PBMC cells was evaluated using an ELISA detection kit (Beyotime, PI518). The test compound was dissolved in DMSO to obtain a 10 mM stock solution and stored at −20° C. for future use. The initial concentration of the compound was […], followed by 5-fold serial dilution to obtain 6 concentrations. Cells were plated in duplicate, and ELISA was performed in single wells. The final concentration of DMSO was 0.4%. Alternatively, the initial concentration of the compound, dilution factor, number of concentration gradients, and replicates could be adjusted based on the specific screening conditions.
Fresh human peripheral blood mononuclear cells (PBMCs) (Sailybio) were seeded at a density of 2×10^5 cells per well in a 96-well plate (Corning, 3599), with each well containing 100 μL of RPMI-1640 (Gibco #A1049101)+10% FBS (Gibco, 10099141C), and incubated overnight at 37° C. under 5% CO2. Test compounds were added to the 96-well culture plate at a volume of 25 μL per well. After 1 hour, 5 μL of LPS was added to achieve a final concentration of 100 ng/mL. No LPS and compound were added to the negative control wells, and no compound was added to the positive control wells. The mixture was further incubated for 24 hours at 37° C. under 5% CO2. Subsequently, the cell culture supernatant was collected by centrifugation at 500 rcf for 8 minutes. The concentration of TNF-α was measured according to the operation manual of the ELISA kit. The concentration-effect curve was fitted using GraphPad Prism 8 software, and the compound concentration resulting in 50% inhibition, IC50, was calculated.

[2] = In vitro liver microsome stability, human; assay type: in vitro ADME; conditions: liver microsomes, 0.5 mg/mL microsomes, 1 μM compound, NADPH, 37° C., read-out: Human liver microsomes Half-life T1/2
Procedure: (§2) The reference compound used in this experiment was Ketanserin, and the final concentration of microsomes in the experimental system was 0.5 mg/mL. The PBS buffer was a 50 mM K2HPO4 buffer. The concentration of the test compound was 1 μM. The microsomes were added to PBS, and the control/test compounds were respectively added to the corresponding reaction systems, mixed thoroughly, and pre-incubated in a 37° C. water bath for 5 minutes. The reaction was initiated by adding 20 mM NADPH solution under 37° C. water bath conditions (for the No NADPH samples, an equal volume of PBS solution was used as a substitute for the 20 mM NADPH solution). At the reaction time points of 0 min, 10 min, 30 mun, 60 min, and 90 min, 30 μL of reaction samples were taken from each reaction system (for the No NADPH samples, sampling was performed at 0 min and 90 min), and the reaction was immediately terminated by adding 300 μL of the internal standard acetonitrile solution. After centrifugation at 4000 rpm, the supernatant was taken and mixed thoroughly with an equal volume of pure water. The samples at each time point were analyzed by LC-MS/MS (AB Triple Quard 5500) to determine the compound content, and the T1/2 was calculated.

[3] = Pharmacokinetic evaluation in mice; assay type: in vivo; conditions: mouse, plasma; for AUC(0-t): read-out: Area under curve AUC0-24 h; for half-life: read-out: Half-life T1/2 (converted)
Procedure: The compound was weighed and dissolved in a mixed solvent of DMAC: Solutol: PBS (1:1:8. After intravenous/gastric administration to mice, whole blood ([…]) was collected at 0.083, 0.25, 0.5, 1, 2, 4, 7, and 24 hours. The samples were anticoagulated with EDTA-K2, immediately centrifuged at 4000 rpm for 5 minutes at 4° C., and the supernatant was frozen in a −80° C. refrigerator. Plasma sample processing: The samples were precipitated with an internal standard-containing CH3CN precipitant, followed by centrifugation at 12700 rpm for 10 min. The supernatant was collected and analyzed by LC-MS/MS (AB Triple Quard 5500) to obtain the plasma drug concentration. The parameters were calculated using a non-compartmental model in Winnolin version 8.1.

[4] = In vitro liver microsome stability, mouse; assay type: in vitro ADME; conditions: liver microsomes, 0.5 mg/mL microsomes, 1 μM compound, NADPH, 37° C., read-out: Mouse liver microsomes Half-life T1/2
Procedure: as §2

[5] = In vitro liver microsome stability, rat; assay type: in vitro ADME; conditions: liver microsomes, 0.5 mg/mL microsomes, 1 μM compound, NADPH, 37° C., read-out: Rat liver microsomes Half-life T1/2
Procedure: as §2

p38 MAPK/MK5 = molecular target: T2, p38 MAPK/MK5 (Homo sapiens, UniProt Q16539); assay: In vitro activity assay of p38 MAPK/MK5 (Z-LYTE kinase assay kit); assay type: biochemical; conditions: active p38α, inactive MK5, Ser/Thr 4; 4-hour reaction at 20° C.
T2 construct: purchased Carna (p38α); Abcam (MK5) 04-152; 217826
Procedure: as §1, with “MAPK/MK5” for “MAPK/MK2”, “4-hour” for “1-hour”, “µL” for “μL”

[6] = intravenous injection group 1 mg/kg
[7] = po, intragastric administration group 5 mg/kg

T1 sequence (Q16539 whole entry): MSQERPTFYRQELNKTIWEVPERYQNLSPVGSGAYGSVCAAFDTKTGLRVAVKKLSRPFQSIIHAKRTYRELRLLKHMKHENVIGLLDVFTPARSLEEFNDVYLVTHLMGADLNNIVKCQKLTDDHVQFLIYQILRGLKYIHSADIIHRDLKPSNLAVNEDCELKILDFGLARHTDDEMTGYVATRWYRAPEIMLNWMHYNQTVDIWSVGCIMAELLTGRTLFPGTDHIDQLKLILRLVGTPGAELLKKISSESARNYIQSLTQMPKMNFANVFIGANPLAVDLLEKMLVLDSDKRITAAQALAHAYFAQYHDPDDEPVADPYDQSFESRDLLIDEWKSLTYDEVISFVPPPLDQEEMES
T1 sequence (P49137 whole entry partner): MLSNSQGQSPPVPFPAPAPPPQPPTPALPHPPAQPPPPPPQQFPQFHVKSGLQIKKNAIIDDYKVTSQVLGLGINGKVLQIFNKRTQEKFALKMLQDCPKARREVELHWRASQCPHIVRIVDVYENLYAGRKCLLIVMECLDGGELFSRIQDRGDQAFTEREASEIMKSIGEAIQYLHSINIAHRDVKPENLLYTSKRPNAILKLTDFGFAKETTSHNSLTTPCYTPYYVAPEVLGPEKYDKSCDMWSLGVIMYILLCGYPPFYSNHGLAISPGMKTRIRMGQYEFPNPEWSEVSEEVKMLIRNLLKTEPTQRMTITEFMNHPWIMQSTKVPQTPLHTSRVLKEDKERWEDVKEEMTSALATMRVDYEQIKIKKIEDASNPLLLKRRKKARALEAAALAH
T2 sequence (Q16539 whole entry): as the sequence (Q16539 whole entry) above

SMILES	IC50 (p38 MAPK/MK2) [nM]	IC50 ([1]; Homo sapiens, PBMC, 24 h) [nM]	half-life at 1 μM [2] [min]	half-life at 1 μM [4] [min]	half-life at 1 μM [5] [min]	further results
Cc1cnc(-c2cccc(C(C)(C)CO)c2F)cc1-n1c(C)cc(OCc2ncc(F)cc2F)c(Cl)c1=O [Compound 137]	11.7	0.84	–	–	–	–
Cc1cnc(-c2ccnc(C(C)(C)O)n2)cc1-n1c(C)cc(OCc2ncc(F)cc2F)c(Cl)c1=O [Compound C, reference compound]	–	26.4	–	–	–	–
Cc1cnc(-c2ccc(F)c(C(C)(C)O)c2)c(F)c1-n1c(C)cc(OCc2ncc(F)cc2F)c(Cl)c1=O [Compound 70-P1]	0.38	11.2	> 280	–	–	–
Cc1cnc(-c2cccc(S(C)(=O)=O)c2)c(F)c1-n1c(C)cc(OCc2ncc(F)cc2F)c(Cl)c1=O [Compound 33-P1]	0.056	2.93	–	–	–	AUC(0-t) [3, 6]: 1580 ng·h/mL; clearance ([3]; intravenous injection group 1 mg/kg, read-out: Clearance CL (converted)): 10.8 mL/min/kg; half-life [3, 6]: 58.8 min; C0 ([3]; intravenous injection group 1 mg/kg, read-out: Initial concentration C0): 3200 ng/mL; Vd ([3]; intravenous injection group 1 mg/kg, read-out: Volume of distribution Vd): 0.32 L/kg; AUC(0-t) [3, 7]: 2800 ng·h/mL; bioavailability ([3]; po, intragastric administration group 5 mg/kg, read-out: Bioavailability F %): 36.9%; half-life [3, 7]: 119 min; Cmax ([3]; po, intragastric administration group 5 mg/kg, read-out: Maximum concentration Cmax): 3670 ng/mL
[2H]C([2H])(Oc1cc(C)n(-c2cc(-c3ccc(F)c([C@@](C)(O)CO)c3F)ncc2C)c(=O)c1Cl)c1ncc(F)cc1F [Compound 145-P1]	1.19	8.51	> 280	> 280	> 280	–
Cc1cnc(-c2ccc(F)c(C(C)(O)C(N)=O)c2)c(F)c1-n1c(C)cc(OCc2ncc(F)cc2F)c(Cl)c1=O (stereo not shown) [Compound 128-P1]	0.15	–	> 280	–	–	–
Cc1cc(OCc2ncc(F)cc2F)c(Cl)c(=O)n1-c1ccnc(-c2cccc(C(C)(C)O)c2F)c1 [Compound 141]	0.794	14.1	–	> 280	151	–
Cc1cnc(-c2ccc(F)c(C(C)(C)O)c2F)cc1-n1c(C)cc(OCc2ncc(F)cc2F)c(Cl)c1=O [Compound 111-P2]	0.22	1.43	> 280	> 280	> 280	–
Cc1cnc(-c2cccc(S(C)(=O)=O)c2)cc1-n1c(C)cc(OCc2ncc(F)cc2F)c(Cl)c1=O [Compound 11]	14.6	18.4	> 280	254	227	–
CNC(=O)c1cccc(-c2cc(-n3c(C)cc(OCc4ncc(F)cc4F)c(Cl)c3=O)c(C)cn2)c1F (single isomer, unassigned) [Compound 20-P2]	0.27	–	> 280	> 280	> 280	IC50 ([1]; 24 hours): 4.2 nM
Cc1cnc(-c2cccc(C(=O)N(C)C)c2)cc1-n1c(C)cc(OCc2ncc(F)cc2F)c(Cl)c1=O [Compound 3]	21.7	–	–	–	–	IC50 (p38 MAPK/MK5): > 10 µM
CNC(=O)c1cccc(-c2cc(-n3c(C)cc(OCc4ncc(F)cc4F)c(Cl)c3=O)c(C)cn2)c1F [Compound 20]	1.03	–	–	–	–	IC50 ([1]; 24 hours): 8.68 nM
[2H]C([2H])(Oc1cc(C)n(-c2cc(-c3cccc([C@@](C)(O)CO)c3F)ncc2C)c(=O)c1Cl)c1ncc(F)cc1F [Compound 146-P1]	1.43	3.38	> 280	137	> 280	–
Cc1cnc(-c2ccc(F)c([C@@](C)(O)CO)c2F)c(F)c1-n1c(C)cc(OCc2ncc(F)cc2F)c(Cl)c1=O [Compound 113-P1]	0.09	1.7	> 280	–	–	–
Cc1cnc(-c2cccc([C@@H](O)CO)c2F)cc1-n1c(C)cc(OCc2ncc(F)cc2F)c(Cl)c1=O [Compound 151-P1]	1.56	12.9	–	–	–	–
Cc1cnc(-c2ccc(F)c(C(C)(C)O)c2)cc1-n1c(C)cc(OCc2ncc(F)cc2F)c(Cl)c1=O [Compound 88-P2]	2.11	–	> 280	–	–	–
CNC(=O)C(C)(O)c1cc(-c2ncc(C)c(-n3c(C)cc(OCc4ncc(F)cc4F)c(Cl)c3=O)c2F)ccc1F (stereo not shown) [Compound 124-P2]	0.1	–	> 280	–	–	–
Cc1cnc(-c2cccc([C@@](C)(O)CO)c2F)c(F)c1-n1c(C)cc(OCc2ncc(F)cc2F)c(Cl)c1=O [Compound 112-P1]	0.13	0.44	> 280	–	–	–
